System: 997726-040-R-J2-PDC tumor spheroids, viability
Assay: Anticancer human tumor 997726-040-R-J2-PDC patient-derived squamous cell lung carcinoma cell line growth inhibition [PI3K]
Conditions: spheroids with HUVEC and MSC; for IC50: curve of first compound; for viability, T/C: stronger effect = lower value
How it was run: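 Tumor cells were combined with HUVEC and MSCs into spheroids, then dosed with PI3K-inhibitor combinations over half-log ranges capped near clinical Cmax or 10 microM.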

[1] = second compound 0.0316 µM, first compound 0.0316 µM
[2] = second compound 0.0316 µM, first compound 0.1 µM
[3] = second compound 0.0316 µM, first compound 0.316 µM
[4] = second compound 0.0316 µM, first compound 1 µM
[5] = second compound 0.0316 µM, first compound 3.16 µM
[6] = second compound 0.0316 µM, first compound 10 µM
[7] = second compound 0.1 µM, first compound 0.0316 µM
[8] = second compound 0.1 µM, first compound 0.1 µM
[9] = second compound 0.1 µM, first compound 0.316 µM
[10] = second compound 0.1 µM, first compound 1 µM
[11] = second compound 0.1 µM, first compound 3.16 µM
[12] = second compound 0.1 µM, first compound 10 µM
[13] = second compound 0.316 µM, first compound 0.0316 µM
[14] = second compound 0.316 µM, first compound 0.1 µM
[15] = second compound 0.316 µM, first compound 0.316 µM
[16] = second compound 0.316 µM, first compound 1 µM
[17] = second compound 0.316 µM, first compound 3.16 µM
[18] = second compound 0.316 µM, first compound 10 µM
[19] = second compound 1 µM, first compound 0.0316 µM
[20] = second compound 1 µM, first compound 0.1 µM
[21] = second compound 1 µM, first compound 0.316 µM
[22] = second compound 1 µM, first compound 1 µM
[23] = second compound 1 µM, first compound 3.16 µM
[24] = second compound 1 µM, first compound 10 µM
[25] = second compound 3.16 µM, first compound 0.0316 µM
[26] = second compound 3.16 µM, first compound 0.1 µM
[27] = second compound 3.16 µM, first compound 0.316 µM
[28] = second compound 3.16 µM, first compound 1 µM
[29] = second compound 3.16 µM, first compound 3.16 µM
[30] = second compound 3.16 µM, first compound 10 µM
[31] = second compound 10 µM, first compound 0.0316 µM
[32] = second compound 10 µM, first compound 0.1 µM
[33] = second compound 10 µM, first compound 0.316 µM
[34] = second compound 10 µM, first compound 1 µM
[35] = second compound 10 µM, first compound 3.16 µM
[36] = second compound 10 µM, first compound 10 µM
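Also: spheroids exposed to compounds for seven days before readout.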

With `CC1(C)CCC(CN2CCN(c3ccc(C(=O)NS(=O)(=O)c4ccc(NCC5CCOCC5)c([N+](=O)[O-])c4)c(Oc4cnc5[nH]ccc5c4)c3)CC2)=C(c2ccc(Cl)cc2)C1` + CC(Nc1ncnc2nc[nH]c12)c1cc2cccc(Cl)c2c(=O)n1-c1ccccc1 the IC50 (second compound 0.0316 µM) was > 10 µM, the IC50 (second compound 0.1 µM) was 9.87 µM and the IC50 (second compound 0.316 µM) was 9.36 µM. For the same compound, the IC50 (second compound 1 µM) was > 10 µM, the IC50 (second compound 3.16 µM) was 6.26 µM and the IC50 (second compound 10 µM) was 3.37 µM. The viability, T/C [1] was 101%, the viability, T/C [2] was 87.9% and the viability, T/C [3] was 93.4%. The viability, T/C [4] was 102%, the viability, T/C [5] was 104% and the viability, T/C [6] was 52.2%. For the same compound, the viability, T/C [7] was 102%, the viability, T/C [8] was 94% and the viability, T/C [9] was 109%. For the same compound, the viability, T/C [10] was 105%, the viability, T/C [11] was 98.6% and the viability, T/C [12] was 49.4%. It also gave a viability, T/C [13] of 97.1%, a viability, T/C [14] of 95.4% and a viability, T/C [15] of 103%. The viability, T/C [16] was 93.5%, the viability, T/C [17] was 91.7% and the viability, T/C [18] was 47.2%. The viability, T/C [19] was 94.3%, the viability, T/C [20] was 85.7% and the viability, T/C [21] was 92%. The viability, T/C [22] was 80.6%, the viability, T/C [23] was 89.9% and the viability, T/C [24] was 51%. The viability, T/C [25] was 73.1%, the viability, T/C [26] was 74.5% and the viability, T/C [27] was 73%. It also gave a viability, T/C [28] of 72.4%, a viability, T/C [29] of 71.9% and a viability, T/C [30] of 35.1%. For the same compound, the viability, T/C [31] was 55.7%, the viability, T/C [32] was 56.4% and the viability, T/C [33] was 48.3%. The viability, T/C [34] was 53.8%, the viability, T/C [35] was 51.2% and the viability, T/C [36] was 29.4%.

In the case of `C[C@@H](NC(=O)c1ncnc(N)c1Cl)c1ncc(C(=O)Nc2cc(C(F)(F)F)c(Cl)cn2)s1` + CC(Nc1ncnc2nc[nH]c12)c1cc2cccc(Cl)c2c(=O)n1-c1ccccc1, the IC50 (second compound 0.0316 µM) is reported as > 10 µM, the IC50 (second compound 0.1 µM) is reported as > 10 µM and the IC50 (second compound 0.316 µM) is reported as > 10 µM. The IC50 (second compound 1 µM) was > 10 µM, the IC50 (second compound 3.16 µM) was > 10 µM and the IC50 (second compound 10 µM) was 4.74 µM. It also gave a viability, T/C [1] of 123%, a viability, T/C [2] of 112% and a viability, T/C [3] of 113%. It also gave a viability, T/C [4] of 120%, a viability, T/C [5] of 97.2% and a viability, T/C [6] of 84.1%. The viability, T/C [7] was 108%, the viability, T/C [8] was 129% and the viability, T/C [9] was 118%. The viability, T/C [10] was 118%, the viability, T/C [11] was 103% and the viability, T/C [12] was 68.7%. For the same compound, the viability, T/C [13] was 114%, the viability, T/C [14] was 114% and the viability, T/C [15] was 128%. For the same compound, the viability, T/C [16] was 119%, the viability, T/C [17] was 96.8% and the viability, T/C [18] was 70.1%. For the same compound, the viability, T/C [19] was 114%, the viability, T/C [20] was 102% and the viability, T/C [21] was 108%. The viability, T/C [22] was 113%, the viability, T/C [23] was 91.5% and the viability, T/C [24] was 72.8%. It also gave a viability, T/C [25] of 97%, a viability, T/C [26] of 90.9% and a viability, T/C [27] of 83.8%. For the same compound, the viability, T/C [28] was 79.2%, the viability, T/C [29] was 79.5% and the viability, T/C [30] was 61.5%. The viability, T/C [31] was 61.4%, the viability, T/C [32] was 62.4% and the viability, T/C [33] was 60.2%. For the same compound, the viability, T/C [34] was 59.5%, the viability, T/C [35] was 52.3% and the viability, T/C [36] was 43.9%.

From PubChem BioAssay AID1963964 (Molecular Pharmacology Branch, DTP, NCI, 2024)
